Results taken from ChEMBL document CHEMBL1149774, “Synthesis of N-(5,7-diamino-3-phenyl-quinoxalin-2-yl)-3,4,5-substituted anilines and N-[4[(5,7-diamino-3-phenylquinoxalin-2-yl)amino]benzoyl]-l-glutamic acid diethyl ester: evaluation of in vitro anti-cancer and anti-folate activities” (Eur J Med Chem, 2008).

Tests used:
HOP-92 = experiment: Growth inhibition of human HOP92 cells after 48 hrs by SRB staining method; type: functional; conditions: HOP-92, 48 h
NCI-H322M = experiment: Growth inhibition of human NCI-H322M cells after 48 hrs by SRB staining method; type: functional
NCI-H460 = experiment: Growth inhibition of human NCI-H460 cells after 48 hrs by SRB staining method; type: functional; conditions: NCI-H460, 48 h
COLO 205 = experiment: Growth inhibition of human COLO205 cells after 48 hrs by SRB staining method; type: functional; conditions: COLO 205, 48 h
HCC 2998 = experiment: Growth inhibition of human HCC2998 cells after 48 hrs by SRB staining method; type: functional; conditions: HCC 2998, 48 h
KM12 = experiment: Growth inhibition of human KM12 cells after 48 hrs by SRB staining method; type: functional; conditions: KM12, 48 h
SNB-75 = experiment: Growth inhibition of human SNB75 cells after 48 hrs by SRB staining method; type: functional; conditions: SNB-75, 48 h
LOX IMVI = experiment: Growth inhibition of human LOX IMVI cells after 48 hrs by SRB staining method; type: functional
Malme-3M = experiment: Growth inhibition of human MALME-3M cells after 48 hrs by SRB staining method; type: functional
M14 = experiment: Growth inhibition of human M14 cells after 48 hrs by SRB staining method; type: functional; conditions: M14, 48 h
SK-MEL-28 = experiment: Growth inhibition of human SK-MEL-28 cells after 48 hrs by SRB staining method; type: functional; conditions: SK-MEL-28, 48 h
SK-MEL-5 = experiment: Growth inhibition of human SK-MEL-5 cells after 48 hrs by SRB staining method; type: functional; conditions: SK-MEL-5, 48 h
UACC-257 = experiment: Growth inhibition of human UACC257 cells after 48 hrs by SRB staining method; type: functional; conditions: UACC-257, 48 h
OVCAR-8 = experiment: Growth inhibition of human OVCAR8 cells after 48 hrs by SRB staining method; type: functional; conditions: OVCAR-8, 48 h
SK-OV-3 = experiment: Growth inhibition of human SKOV3 cells after 48 hrs by SRB staining method; type: functional; conditions: SK-OV-3, 48 h
A498 = experiment: Growth inhibition of human A498 cells after 48 hrs by SRB staining method; type: functional; conditions: A498, 48 h
MCF7 = experiment: Growth inhibition of human MCF7 cells after 48 hrs by SRB staining method; type: functional; conditions: MCF7, 48 h
MDA-MB-231 = experiment: Growth inhibition of human MDA-MB-231 cells after 48 hrs by SRB staining method; type: functional; conditions: MDA-MB-231, 48 h
MDA-MB-435 = experiment: Growth inhibition of human MDA-MB-435 cells after 48 hrs by SRB staining method; type: functional; conditions: MDA-MB-435, 48 h
BT-549 = experiment: Growth inhibition of human BT549 cells after 48 hrs by SRB staining method; type: functional; conditions: BT-549, 48 h
Dihydrofolate reductase = molecular target: T1, Dihydrofolate reductase (Homo sapiens, UniProt P00374); experiment: Inhibition of human dihydrofolate reductase
T1 sequence (P00374 whole entry): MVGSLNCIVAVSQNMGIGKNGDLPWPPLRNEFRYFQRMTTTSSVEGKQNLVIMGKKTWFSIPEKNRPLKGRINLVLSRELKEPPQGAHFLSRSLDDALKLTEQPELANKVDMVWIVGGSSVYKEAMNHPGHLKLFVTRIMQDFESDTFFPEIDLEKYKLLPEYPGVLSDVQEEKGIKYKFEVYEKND

MDA-N = experiment: Growth inhibition of human MDA-N cells after 48 hrs by SRB staining method; type: functional
A549 = experiment: Growth inhibition of human A549 cells after 48 hrs by SRB staining method; type: functional; conditions: A549, 48 h
SR = experiment: Growth inhibition of human SR cells after 48 hrs by SRB staining method; type: functional
Thymidylate synthase = Thymidylate synthase (Homo sapiens, UniProt P04818)
Description: Inhibition of human thymidylate synthase

[1] = read-out: pLC50 (the source's name) (converted)

Sequence of Thymidylate synthase (P04818 whole entry): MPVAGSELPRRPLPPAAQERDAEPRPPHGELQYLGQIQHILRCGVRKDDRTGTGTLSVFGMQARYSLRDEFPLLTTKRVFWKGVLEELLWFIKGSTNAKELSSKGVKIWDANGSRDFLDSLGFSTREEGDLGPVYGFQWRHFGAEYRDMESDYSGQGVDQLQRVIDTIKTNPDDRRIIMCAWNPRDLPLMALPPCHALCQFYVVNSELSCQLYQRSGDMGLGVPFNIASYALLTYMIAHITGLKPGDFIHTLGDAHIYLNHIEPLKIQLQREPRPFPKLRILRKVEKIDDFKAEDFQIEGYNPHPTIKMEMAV

COc1cc(Nc2nc3cc(N)cc(N)c3nc2-c2ccccc2)cc(OC)c1
LC50 (HOP-92): > 100 µM
GI50 (NCI-H322M): 13.8 µM
LC50 (NCI-H322M): > 100 µM
TGI (NCI-H322M; read-out: pTGI (converted)): 58.9 µM
GI50 (NCI-H460): 7.94 µM
LC50 (concentration killing 50% of cells) (NCI-H460): > 100 µM
TGI (NCI-H460; read-out: pTGI (converted)): 52.5 µM
GI50 (COLO 205): 14.5 µM
LC50 (COLO 205): 67.6 µM
TGI (COLO 205; read-out: pTGI (converted)): 31.6 µM
GI50 (HCC 2998): 24.5 µM
LC50 (HCC 2998): > 100 µM
TGI (HCC 2998; read-out: pTGI (converted)): > 100 µM
GI50 (KM12): 13.2 µM
LC50 (KM12): 72.4 µM
TGI (KM12; read-out: pTGI (converted)): 30.9 µM
GI50 (SNB-75): 3.72 µM
LC50 (SNB-75): > 100 µM
TGI (SNB-75; read-out: pTGI (converted)): 44.7 µM
GI50 (LOX IMVI): 15.1 µM
LC50 (LOX IMVI): > 100 µM
TGI (LOX IMVI; read-out: pTGI (converted)): 50.1 µM
GI50 (Malme-3M): 4.37 µM
LC50 (Malme-3M): > 100 µM
TGI (Malme-3M; read-out: pTGI (converted)): 24.5 µM
GI50 (M14): 14.1 µM
LC50 (M14): 85.1 µM
TGI (M14; read-out: pTGI (converted)): 34.7 µM
GI50 (SK-MEL-28): 14.8 µM
CC50 (SK-MEL-28; [1]): > 100 µM
TGI (SK-MEL-28; read-out: pTGI (converted)): 89.1 µM
GI50 (SK-MEL-5): 10.5 µM
LC50 (SK-MEL-5): 87.1 µM
TGI (SK-MEL-5; read-out: pTGI (converted)): 30.2 µM
GI50 (UACC-257): 15.8 µM
LC50 (UACC-257): > 100 µM
TGI (UACC-257; read-out: pTGI (converted)): 47.9 µM
GI50 (OVCAR-8): 6.17 µM
CC50 (OVCAR-8; [1]): > 100 µM
TGI (OVCAR-8; read-out: pTGI (converted)): 46.8 µM
GI50 (SK-OV-3): 6.61 µM
CC50 (SK-OV-3; [1]): > 100 µM
TGI (SK-OV-3; read-out: pTGI (converted)): 39.8 µM
GI50 (A498): 4.9 µM
CC50 (A498; [1]): 79.4 µM
TGI (A498; read-out: pTGI (converted)): 22.4 µM
GI50 (MCF7): 7.94 µM
CC50 (MCF7; [1]): 85.1 µM
TGI (MCF7; read-out: pTGI (converted)): 26.9 µM
GI50 (MDA-MB-231): 6.46 µM
CC50 (MDA-MB-231; [1]): > 100 µM
TGI (MDA-MB-231; read-out: pTGI (converted)): 34.7 µM
GI50 (MDA-MB-435): 11.5 µM
CC50 (MDA-MB-435; [1]): 49 µM
TGI (MDA-MB-435; read-out: pTGI (converted)): 24 µM
GI50 (BT-549): 4.68 µM
CC50 (BT-549; [1]): > 100 µM
TGI (BT-549; read-out: pTGI (converted)): 31.6 µM
Ki (Dihydrofolate reductase): 600 nM
GI50 (MDA-N): 12.9 µM
CC50 (MDA-N; [1]): 100 µM
TGI (MDA-N; read-out: pTGI (converted)): 36.3 µM
GI50 (A549): 20 µM
CC50 (A549; [1]): > 100 µM
TGI (A549; read-out: pTGI (converted)): > 100 µM
GI50 (SR): 5.62 µM
CC50 (SR; [1]): > 100 µM
TGI (SR; read-out: pTGI (converted)): > 100 µM
Ki (Thymidylate synthase): 25 µM
